The experiment has as its target human VR1 (Homo sapiens, UniProt Q8NER1). Kind of experiment: Human VR1 antagonist assay (Ca2+ imaging). In kind it is cell-based. As to conditions: intracellular Ca2+ imaging (fura-2) in cells expressing human VR1 receptors; stimulus (capsaicin or acid) not given. From the text: VR1 antagonistic activity can be determined by the Ca^2+ imaging assay using human VR1 highly expressing cells. The cells that highly express human VR1 receptors are obtainable from several different conventional methods. The one standard method is cloning from human Dorsal Root Ganglion (DRG) or kidney according to the methods such as described in the journal article; Nature, 389, pp 816-824, 1997. Alternatively VR1 receptors highly expressing human keratinocytes are also known and published in the journal article (Biochemical and Biophysical Research Communications, 291, pp 124-129, 2002). […] Furthermore, the method to up regulate human VR1 gene, which is usually a silent gene or don't produce detectable level of VR1 receptors, is also available to obtain propriety cells. Such genetic modification method was described in detail; Nat. Biotechnol., 19, pp 440-445, 2001.
The cells that express human VR1 receptors were maintained in culture flask at 37° C. in an environment containing 5% CO2 until use in the assay. The intracellular Ca^2+ imaging assay to determine VR1 antagonistic activities were done by following procedures.
The culture medium was removed from the flask and fura-2/AM fluorescent calcium indicator was added to the flask at a concentration of 5 μM in the medium. The flask was placed in CO2 incubator and incubated for 1 hour. Then the cells expressing the human VR1 receptors were detached from the flask follow by washing with phosphate buffer saline, PBS(−) and re-suspended in assay buffer. The 80 μl of aliquot of cell suspension (3.75×10^5 cells/ml) was added to the assay plate and the cells were spun down by centrifuge (950 rpm, 20° C., 3 minutes).
The compounds of the examples were tested in the Human VR1 antagonist assay described above.
The capsaicin-induced changes in the intracellular calcium concentration were monitored using FDSS 6000 (Hamamatsu Photonics, Japan), a fluorometric imaging system. The cell suspension in Krebs-Ringer HEPES (KRH) buffer (115 mM NaCl, 5.4 mM KCl, 1 mM MgSO4, 1.8 mM CaCl2, 11 mM D-Glucose, 25 mM HEPES, 0.96 mM Na2HPO4, pH 7.3) were pre-incubated with varying concentrations of the test compounds or KRH buffer (buffer control) for 15 minutes at room temperature under the dark condition. Then capsaicin solution, which gives 300 nM in assay mixture, was automatically added to the assay plate by the FDSS 6000.
The acid-induced changes in the intracellular calcium concentration were monitored using FDSS 6000 (Hamamatsu Photonics, Japan), a fluorometric imaging system. The cell suspension in resting buffer (HBSS supplemented with 10 mM HEPES, pH 7.4) were pre-incubated with varying concentrations of the test compounds or resting buffer (buffer control) for 15 minutes at room temperature under the dark condition. The cells were automatically added the stimulating solution (HBSS supplemented with MES, final assay buffer pH5.8) by the FDSS 6000.
The monitoring of the changes in the fluorescence signals (λex=340 nm/380 nm, λem=510-520 nm) was initiated at 1 minute prior to the addition of capsaicin solution or acidic buffer and continued for 5 minute.
Sequence of human VR1 (Q8NER1 whole entry): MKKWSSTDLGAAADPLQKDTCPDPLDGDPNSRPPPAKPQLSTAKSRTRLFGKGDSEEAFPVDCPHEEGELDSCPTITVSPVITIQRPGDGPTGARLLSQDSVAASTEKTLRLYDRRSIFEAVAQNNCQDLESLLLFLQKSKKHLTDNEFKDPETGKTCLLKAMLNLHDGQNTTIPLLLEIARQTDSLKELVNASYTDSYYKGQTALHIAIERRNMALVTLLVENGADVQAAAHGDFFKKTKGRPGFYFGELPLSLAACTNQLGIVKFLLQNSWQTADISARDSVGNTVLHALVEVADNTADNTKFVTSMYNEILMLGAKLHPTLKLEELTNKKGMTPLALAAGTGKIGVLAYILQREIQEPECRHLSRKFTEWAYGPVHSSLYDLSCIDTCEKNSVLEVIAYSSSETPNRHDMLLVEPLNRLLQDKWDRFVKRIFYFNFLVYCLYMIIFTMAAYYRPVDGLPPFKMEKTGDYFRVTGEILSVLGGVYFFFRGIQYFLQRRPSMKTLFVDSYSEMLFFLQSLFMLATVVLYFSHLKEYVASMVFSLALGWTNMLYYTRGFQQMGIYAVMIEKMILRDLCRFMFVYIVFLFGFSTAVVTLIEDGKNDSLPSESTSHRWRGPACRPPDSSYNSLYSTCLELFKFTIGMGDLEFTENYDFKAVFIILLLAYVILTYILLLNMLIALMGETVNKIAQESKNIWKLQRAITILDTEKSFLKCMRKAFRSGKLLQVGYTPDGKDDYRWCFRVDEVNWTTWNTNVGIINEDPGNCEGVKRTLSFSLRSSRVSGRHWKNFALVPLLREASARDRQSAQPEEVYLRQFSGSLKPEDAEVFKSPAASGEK
The IC50 is the point on the concentration scale where inhibition reaches its midpoint. Higher therefore signals a need for much substance. Consider `COc1cc(Cl)c([C@@H](C)NC(=O)c2ccc3nc(C(C)(C)C(F)(F)F)ccc3c2)cc1C` [Example D12, N-[(1R)-1-(2-Chloro-4-methoxy-5-methylphenyl)ethyl]-2-(2,2,2-trifluoro-1,1-dimethylethyl)quinoline-6-carboxamide], for which it took 181 nM to reach half-maximal inhibition (IC50). The value for `Cc1cc([C@H](C)NC(=O)c2ccc3nc(C(C)(C)C)ccc3c2)c(Cl)cc1O` [Example D7, 2-tert-Butyl-N-[(1S)-1-(2-chloro-4-hydroxy-5-methylphenyl)ethyl]quinoline-6-carboxamide] was 31.9 nM; that for `COc1cc([C@@H](C)NC(=O)c2ccc3nc(C(C)(C)C)ccc3c2)c(Cl)cc1O` [Example D1, 2-tert-Butyl-[(1R)-1-(2-chloro-4-hydroxy-5-methoxyphenyl)ethyl]quinoline-6-carboxamide] was 74.1 nM. The compound `COc1cc(Cl)c([C@@H](C)NC(=O)c2ccc3nc(C(C)(C)C)ccc3c2)cc1C` [Example D4, 2-tert-Butyl-N-[(1R)-1-(2-chloro-4-methoxy-5-methylphenyl)ethyl]quinoline-6-carboxamide] returned an IC50 of 270 nM.

With `COc1cc(CNC(=O)c2ccc3nc(C(C)(C)C)ccc3c2)c(Br)cc1O` [Example D3, N-(2-Bromo-4-hydroxy-5-methoxybenzyl)-2-tert-butylquinoline-6-carboxamide], the IC50 was 403 nM.

Regarding `Cc1cc([C@@H](C)NC(=O)c2cnc3cc(C(F)(F)F)ccc3c2)c(Cl)cc1O` [Example C2, N-[(1R)-1-(2-Chloro-4-hydroxy-5-methylphenyl)ethyl]-7-(trifluoromethyl)quinoline-3-carboxamide], it took 667 nM to reach half-maximal inhibition (IC50).

`C[C@@H](NC(=O)c1ccc2nc(C(C)(C)C)ccc2c1)c1ccc(CO)cc1` [Example D8, 2-tert-Butyl-N-{(1R)-1-[4-(hydroxymethyl)phenyl]ethyl}quinoline-6-carboxamide] returned an IC50 of 434 nM.

Compound `Cc1cc([C@@H](C)NC(=O)c2ccc3nc(C(C)(C)C)ccc3c2)c(Cl)cc1O` [Example D5, 2-tert-butyl-N-[(1R)-1-(2-chloro-4-hydroxy-5-methylphenyl)ethyl]5 quinoline-6-carboxamide] showed an IC50 of 331 nM. The value for `Cc1cc([C@@H](C)NC(=O)c2ccc3nc(C(C)(C)C(F)(F)F)ccc3c2)c(Cl)cc1O` [Example D13, N-[(1R)-1-(2-Chloro-4-hydroxy-5-methylphenyl)ethyl]-2-(2,2,2-trifluoro-1,1-dimethylethyl)quinoline-6-carboxamide] was 31.8 nM. Turning to `Oc1cc2c(cc1O)CN(C(=S)NCCc1ccc(Cl)cc1)CCC2` [Capsazepine, reference compound], the IC50 is 237 to 455 nM. The value for `Cc1cc(CNC(=O)c2ccc3nc(C(C)(C)C)ccc3c2)c(Cl)cc1O` [Example D10, 2-tert-Butyl-N-(2-chloro-4-hydroxy-5-methylbenzyl)quinoline-6-carboxamide] was 311 nM; that for `COc1cc(CNC(=O)c2ccc3nc(C(C)(C)C)ccc3c2)c(Cl)cc1O` [Example D2, 2-tert-Butyl-N-(2-chloro-4-hydroxy-5-methoxybenzyl)quinoline-6-carboxamide] was 176 nM; that for `Cc1cc(C(C)NC(=O)c2ccc3nc(C(C)(C)C(F)(F)F)ccc3c2)c(F)cc1CO` (stereo not drawn) [Example D14, N-{1-[2-Fluoro-4-(hydroxymethyl)-5-methylphenyl]ethyl}-2-(2,2,2-trifluoro-1,1-dimethylethyl)quinoline-6-carboxamide] was 65.5 nM. The value for `COc1cc(Cl)c([C@@H](C)NC(=O)c2ccc3cc(C(C)(C)C)ccc3c2)cc1C` [Example A1, 6-tert-Butyl-N-[(1R)-1-(2-chloro-4-methoxy-5-methylphenyl)ethyl]-2-naphthamide] was 93.5 nM. As to `COc1cc([C@@H](C)NC(=O)c2ccc3nc(C(C)(C)C)ccc3c2)ccc1O` [Example D15, 2-tert-Butyl-N-[(1R)-1-(4-hydroxy-3-methoxyphenyl)ethyl]quinoline-6-carboxamide], the IC50 was 254 nM.

`Cc1cc(CNC(=O)c2ccc3nc(C(C)(C)C)ccc3c2)c(F)cc1O` [Example D11, 2-tert-Butyl-N-(2-fluoro-4-hydroxy-5-methylbenzyl)quinoline-6-carboxamide] gave an IC50 of 501 nM. Compound `Cc1cc([C@@H](C)NC(=O)c2ccc3cc(C(C)(C)C)ccc3c2)c(Cl)cc1O` [Example A2, 6-tert-Butyl-N-[(1R)-1-(2-chloro-4-hydroxy-5-methylphenyl)ethyl]-2-naphthamide] yielded an IC50 of 34.2 nM. On to `COc1cc(CNC(=O)c2ccc3cc(C(C)(C)C)ccc3n2)c(Cl)cc1O` [Example B1], for which 590 nM corresponded to half-maximal inhibition (IC50).

These data come from patent US8158650B2, “Substituted phenylmethyl bicyclocarboxyamide compounds” (Pfizer Inc., priority 2006, dated 2012).
